Assay results reported in patent US20060004088A1, “Furan derivatives for preventing and curing osteoporosis and pharmaceutical compositions containing the same” (OCT INC., priority 2002, published 2006).

Test system: osteoclast pregenitor cells
Experiment: Inhibition rates of furan derivatives versus osteoclast formation (TRAP staining)
Assay type: cell-based, mice
Conditions: TRAP-positive multinucleated cells, untreated control set as 100%
Method: First, bone marrow cells were isolated, as follow. After sacrificing 7-9 week female mice by cervical dislocation, femur and tibia were excised aseptically while removing attached soft tissues. After cutting both ends of long bones, 1 ml of an enzyme solution, containing 0.1% collagenase (Gibco), 0.05% trypsin and 0.5 mM EDTA (Gibco), was injected to the bone marrow cavity at one end using a syringe with a 26-guage needle, and bone marrow was then collected. After shaking the recovered bone marrow for 30 min, bone marrow cells were collected, and cultured in α-minimum essential medium (α-MEM) supplemented with 10% FBS for 24 hrs. Then, non-adherent cells were collected, which are osteoclast pregenitors, aliquotted onto culture plates at a density of 2×10^5 cells per well, and cultured for 8 days in α-MEM supplemented with 20 ng/ml of macrophage-colony stimulating factor (M-CSF, Peprotech, USA) and 30 ng/ml RANKL (Peprotech, USA). During the 8 days of culturing, the cells were treated with the Compound 1. Thereafter, osteoclast formation was investigated by fixing the cultured cells and then carrying out TRAP staining, as described in the following Experimental Example 2.2. In addition, resorption activity of osteoclasts was investigated by measuring the absorption area after removing osteoclasts in cultures in calcium phosphate-coated plates, as described in Experimental Example 2.3, below.
After cell culture, the adherent cells were washed with PBS, and TRAP staining was performed, as follows. After being fixed with citrate-acetate-formaldehyde for 5 min, the cells were incubated for 1 hr in acetate buffer (prewarmed at 37° C., pH 5.0) containing naphthol AS-BI phosphate, fast Garnet GBC and 7 mM tartrate buffer (pH 5.0). TRAP-positive multinucleated cells having 3 or more nuclei were considered as osteoclasts.
Osteoclast pregenitor cells were isolated, and their differentiation to mature osteoclasts was induced, according to the same method as in the Experimental Example 2-1, while treated with each of the furan derivatives of the present invention. According to the same method as in the Experimental Example 2-2, TRAP staining performed, and TRAP-positive multinucleated cells were counted. An inhibition rate of each furan derivative against osteoclast formation was expressed as percentage, wherein the number of stained cells in a control not treated the furan derivative was arbitrarily set as 100% (Tables 14 to 16).

SMILES: Cc1cc(OCc2ccc(C(=O)O)o2)ccc1Cl [Compound 119]
- Inhibition rate against osteoclast formation, % (0.1 μM): 0%
- Inhibition rate against osteoclast formation, % (1 μM): 0%
- Inhibition rate against osteoclast formation, % (10 μM): 37.02%

SMILES: O=C(O)c1ccc(CSCc2ccccc2)o1 [Compound 120]
- Inhibition rate against osteoclast formation, % (0.1 μM): 0%
- Inhibition rate against osteoclast formation, % (1 μM): 0%
- Inhibition rate against osteoclast formation, % (10 μM): 27.99%

SMILES: CCC(C)NC(=O)c1ccc(COc2ccc(I)cc2)o1 (stereo not drawn) [Compound 121]
- Inhibition rate against osteoclast formation, % (0.1 μM): 0%
- Inhibition rate against osteoclast formation, % (1 μM): 0%
- Inhibition rate against osteoclast formation, % (10 μM): 7.12%

SMILES: CCN(CC)C(=O)c1ccc(COc2ccc(Cl)c(C)c2)o1 [Compound 123]
- Inhibition rate against osteoclast formation, % (0.1 μM): 0%
- Inhibition rate against osteoclast formation, % (1 μM): 6.9%
- Inhibition rate against osteoclast formation, % (10 μM): 100%

SMILES: CC1CCN(C(=O)c2ccc(COc3cc(Cl)ccc3Cl)o2)CC1 [Compound 124]
- Inhibition rate against osteoclast formation, % (0.1 μM): 0%
- Inhibition rate against osteoclast formation, % (1 μM): 0%
- Inhibition rate against osteoclast formation, % (10 μM): 7.62%

SMILES: CC(C)(C)NC(=O)c1ccc(COCC(F)(F)F)o1 [Compound 127]
- Inhibition rate against osteoclast formation, % (0.1 μM): 0%
- Inhibition rate against osteoclast formation, % (1 μM): 0%
- Inhibition rate against osteoclast formation, % (10 μM): 13.82%

SMILES: O=C(c1ccc(COc2ccccc2Br)o1)N1CCCCCC1 [Compound 128]
- Inhibition rate against osteoclast formation, % (0.1 μM): 6.54%
- Inhibition rate against osteoclast formation, % (1 μM): 0%
- Inhibition rate against osteoclast formation, % (10 μM): 97.65%

SMILES: CC(C)(C)NC(=O)c1ccc(COc2ccccc2Br)o1 [Compound 129]
- Inhibition rate against osteoclast formation, % (0.1 μM): 0%
- Inhibition rate against osteoclast formation, % (1 μM): 0%
- Inhibition rate against osteoclast formation, % (10 μM): 2.2%

SMILES: CC(C)NC(=O)c1ccc(CNc2cc(Cl)ccc2Cl)o1 [Compound 130]
- Inhibition rate against osteoclast formation, % (0.1 μM): 0%
- Inhibition rate against osteoclast formation, % (1 μM): 0%
- Inhibition rate against osteoclast formation, % (10 μM): 7.84%

SMILES: Cc1cc(OCc2ccc(C(=O)N3CCOCC3)o2)ccc1Cl [Compound 132]
- Inhibition rate against osteoclast formation, % (0.1 μM): 0%
- Inhibition rate against osteoclast formation, % (1 μM): 0%
- Inhibition rate against osteoclast formation, % (10 μM): 62.30%

SMILES: O=C(c1ccc(COc2cc(Cl)ccc2Cl)o1)N1CCCCCC1 [Compound 133]
- Inhibition rate against osteoclast formation, % (0.1 μM): 0%
- Inhibition rate against osteoclast formation, % (1 μM): 0%
- Inhibition rate against osteoclast formation, % (10 μM): 0.5%

SMILES: CC(C)(C)c1ccc(OCc2ccc(C(=O)NC3CCCCC3)o2)cc1 [Compound 134]
- Inhibition rate against osteoclast formation, % (0.1 μM): 0%
- Inhibition rate against osteoclast formation, % (1 μM): 0%
- Inhibition rate against osteoclast formation, % (10 μM): 21.42%

SMILES: CC(C)(C)c1ccc(OCc2ccc(C(=O)Nc3ccccc3)o2)cc1 [Compound 136]
- Inhibition rate against osteoclast formation, % (0.1 μM): 0%
- Inhibition rate against osteoclast formation, % (1 μM): 0%
- Inhibition rate against osteoclast formation, % (10 μM): 2.49%

SMILES: O=C(Nc1ccccc1)c1ccc(COc2ccc3ccccc3c2)o1 [Compound 137]
- Inhibition rate against osteoclast formation, % (0.1 μM): 0%
- Inhibition rate against osteoclast formation, % (1 μM): 0%
- Inhibition rate against osteoclast formation, % (10 μM): 38.3%

SMILES: O=C(Nc1cccc(Br)c1)c1ccc(COc2ccc(F)cc2)o1 [Compound 140]
- Inhibition rate against osteoclast formation, % (0.1 μM): 0%
- Inhibition rate against osteoclast formation, % (1 μM): 0%
- Inhibition rate against osteoclast formation, % (10 μM): 11.93%

SMILES: O=C(Nc1ccc(F)cc1)c1ccc(COc2cccc(Cl)c2)o1 [Compound 141]
- Inhibition rate against osteoclast formation, % (0.1 μM): 0%
- Inhibition rate against osteoclast formation, % (1 μM): 0%
- Inhibition rate against osteoclast formation, % (10 μM): 13.01%

SMILES: COc1ccc(NC(=O)c2ccc(COc3ccccc3Cl)o2)cc1Cl [Compound 142]
- Inhibition rate against osteoclast formation, % (0.1 μM): 0%
- Inhibition rate against osteoclast formation, % (1 μM): 0%
- Inhibition rate against osteoclast formation, % (10 μM): 32.17%

SMILES: O=C(Nc1ccc(F)c(F)c1)c1ccc(COc2ccc(I)cc2)o1 [Compound 143]
- Inhibition rate against osteoclast formation, % (0.1 μM): 0%
- Inhibition rate against osteoclast formation, % (1 μM): 0%
- Inhibition rate against osteoclast formation, % (10 μM): 10.63%

SMILES: CCOc1ccccc1NC(=O)c1ccc(COc2ccc(Cl)cc2[N+](=O)[O-])o1 [Compound 144]
- Inhibition rate against osteoclast formation, % (0.1 μM): 0%
- Inhibition rate against osteoclast formation, % (1 μM): 21.95%
- Inhibition rate against osteoclast formation, % (10 μM): 85.25%

SMILES: COc1ccc(NC(=O)c2ccc(COc3cc(Cl)ccc3Cl)o2)c(OC)c1 [Compound 145]
- Inhibition rate against osteoclast formation, % (0.1 μM): 0%
- Inhibition rate against osteoclast formation, % (1 μM): 5.98%
- Inhibition rate against osteoclast formation, % (10 μM): 83.3%

SMILES: O=C(Nc1ccc(Br)cc1)c1ccc(COc2ccc(I)cc2)o1 [Compound 146]
- Inhibition rate against osteoclast formation, % (0.1 μM): 0%
- Inhibition rate against osteoclast formation, % (1 μM): 0%
- Inhibition rate against osteoclast formation, % (10 μM): 10.03%

SMILES: Cc1ccc(OCc2ccc(C(=O)Nc3ccc(F)cc3)o2)c([N+](=O)[O-])c1 [Compound 147]
- Inhibition rate against osteoclast formation, % (0.1 μM): 6.11%
- Inhibition rate against osteoclast formation, % (1 μM): 19.4%
- Inhibition rate against osteoclast formation, % (10 μM): 99.72%

SMILES: NC(=O)c1ccc(NC(=O)c2ccc(COc3cc(Cl)ccc3Cl)o2)cc1 [Compound 148]
- Inhibition rate against osteoclast formation, % (0.1 μM): 0%
- Inhibition rate against osteoclast formation, % (1 μM): 3.05%
- Inhibition rate against osteoclast formation, % (10 μM): 47.55%

SMILES: COc1ccc(NC(=O)c2ccc(COc3ccc(F)cc3)o2)c([N+](=O)[O-])c1 [Compound 149]
- Inhibition rate against osteoclast formation, % (0.1 μM): 0%
- Inhibition rate against osteoclast formation, % (1 μM): 10.32%
- Inhibition rate against osteoclast formation, % (10 μM): 78.34%

SMILES: COc1ccc(NC(=O)c2ccc(COc3ccc(Cl)c(C)c3)o2)cc1 [Compound 150]
- Inhibition rate against osteoclast formation, % (0.1 μM): 0%
- Inhibition rate against osteoclast formation, % (1 μM): 0%
- Inhibition rate against osteoclast formation, % (10 μM): 19.12%

SMILES: O=C(Nc1cc(F)ccc1F)c1ccc(COc2cccc(Cl)c2)o1 [Compound 151]
- Inhibition rate against osteoclast formation, % (0.1 μM): 0%
- Inhibition rate against osteoclast formation, % (1 μM): 0%
- Inhibition rate against osteoclast formation, % (10 μM): 19.8%

SMILES: COC(=O)c1ccc(C)c(NC(=O)c2ccc(COc3ccc(I)cc3)o2)c1 [Compound 152]
- Inhibition rate against osteoclast formation, % (0.1 μM): 5.37%
- Inhibition rate against osteoclast formation, % (1 μM): 0.08%
- Inhibition rate against osteoclast formation, % (10 μM): 37.56%

SMILES: Cc1ccc(F)c(NC(=O)c2ccc(COc3ccc(C)cc3[N+](=O)[O-])o2)c1 [Compound 155]
- Inhibition rate against osteoclast formation, % (0.1 μM): 0%
- Inhibition rate against osteoclast formation, % (1 μM): 0%
- Inhibition rate against osteoclast formation, % (10 μM): 27.92%

SMILES: O=C(Nc1cccc(Cl)c1Cl)c1ccc(COc2ccccc2[N+](=O)[O-])o1 [Compound 156]
- Inhibition rate against osteoclast formation, % (0.1 μM): 13.01%
- Inhibition rate against osteoclast formation, % (1 μM): 18.26%
- Inhibition rate against osteoclast formation, % (10 μM): 98.48%

SMILES: COc1ccccc1NC(=O)c1ccc(COc2cc(C)ccc2C)o1 [Compound 157]
- Inhibition rate against osteoclast formation, % (0.1 μM): 4.87%
- Inhibition rate against osteoclast formation, % (1 μM): 10.71%
- Inhibition rate against osteoclast formation, % (10 μM): 97.46%

SMILES: Cc1ccc(F)c(NC(=O)c2ccc(COc3ccccc3[N+](=O)[O-])o2)c1 [Compound 158]
- Inhibition rate against osteoclast formation, % (0.1 μM): 0%
- Inhibition rate against osteoclast formation, % (1 μM): 0%
- Inhibition rate against osteoclast formation, % (10 μM): 23.57%

SMILES: CC(=O)c1ccc(NC(=O)c2ccc(COc3cccc4ccccc34)o2)cc1 [Compound 160]
- Inhibition rate against osteoclast formation, % (0.1 μM): 0%
- Inhibition rate against osteoclast formation, % (1 μM): 0%
- Inhibition rate against osteoclast formation, % (10 μM): 38.96%

SMILES: O=C(Nc1cc(F)ccc1F)c1ccc(COc2ccccc2Cl)o1 [Compound 161]
- Inhibition rate against osteoclast formation, % (0.1 μM): 0%
- Inhibition rate against osteoclast formation, % (1 μM): 0%
- Inhibition rate against osteoclast formation, % (10 μM): 11.33%

SMILES: CCc1cccc(NC(=O)c2ccc(COc3ccc(F)cc3)o2)c1 [Compound 163]
- Inhibition rate against osteoclast formation, % (0.1 μM): 0%
- Inhibition rate against osteoclast formation, % (1 μM): 0%
- Inhibition rate against osteoclast formation, % (10 μM): 51.2%

SMILES: CCCc1ccc(OCc2ccc(C(=O)Nc3ccc(OC)c(OC)c3)o2)cc1 [Compound 164]
- Inhibition rate against osteoclast formation, % (0.1 μM): 0%
- Inhibition rate against osteoclast formation, % (1 μM): 0%
- Inhibition rate against osteoclast formation, % (10 μM): 30.52%

SMILES: CCOc1ccc(OCc2ccc(C(=O)NC(C)(C)C)o2)cc1 [Compound 165]
- Inhibition rate against osteoclast formation, % (0.1 μM): 12.35%
- Inhibition rate against osteoclast formation, % (1 μM): 28.76%
- Inhibition rate against osteoclast formation, % (10 μM): 88.75%

SMILES: COc1ccccc1NC(=O)c1ccc(COc2ccccc2OC)o1 [Compound 166]
- Inhibition rate against osteoclast formation, % (0.1 μM): 0%
- Inhibition rate against osteoclast formation, % (1 μM): 0%
- Inhibition rate against osteoclast formation, % (10 μM): 1.08%

SMILES: COC(=O)c1ccccc1NC(=O)c1ccc(COc2ccc(Cl)cc2Cl)o1 [Compound 167]
- Inhibition rate against osteoclast formation, % (0.1 μM): 0%
- Inhibition rate against osteoclast formation, % (1 μM): 22.42%
- Inhibition rate against osteoclast formation, % (10 μM): 96.47%

SMILES: CCc1ccc(OCc2ccc(C(=O)Nc3cc(C)cc(C)c3)o2)cc1 [Compound 169]
- Inhibition rate against osteoclast formation, % (0.1 μM): 0%
- Inhibition rate against osteoclast formation, % (1 μM): 0%
- Inhibition rate against osteoclast formation, % (10 μM): 21.04%
